Test results taken from patent US20190177279A1, “CARBOXYLIC ACID AROMATIC 1,2-CYCLOPROPYLAMIDES” (Bayer Pharma Aktiengesellschaft, priority 2017, published 2019).

Test system: IL-6 secretion
Assay: Bradykinin B1 receptor agonist-induced secretion of IL-6 in human IMR-90 cells
Assay type: cell-based
Conditions: 0.1 μM Lys-[Des-Arg9]Bradykinin and 0.1 μM Sar-[D-Phe8]-des-Arg9-Bradykinin, 5 hours
Source text: Inhibitory Activity on Bradykinin B1 Receptor Agonist-Induced Secretion of IL-6 and IL-8 in Human IMR-90 Cells
The effect of the compound examples on secretion of the cytokine IL-6 and IL-8 was investigated in the human foetal lung fibroblast IMR-90 cell line. Here the induction of the cytokine secretion was induced by the Bradykinin B1 receptor agonists Lys-[Des-Arg9]Bradykinin (CAS 71800-36-7, Tocris Bioscience) and Sar-[D-Phe8]-des-Arg9-Bradykinin (CAS 126959-88-4, Tocris Bioscience) leading to the activation of the Bradykinin B1-driven signalling pathway. […]
IMR-90 cells were cultured in Eagle's Minimum Essential Medium (EMEM) containing 2 mM L-glutamine, 1 g/L glucose, 1.5 g/L NaHCO3, 1 mM sodium pyruvate and non-essential amino acids (ATCC, 30-2003™) supplemented with 10% FBS (Biochrom, 50615) and 50 U/mL Penicillin, 50 μg/mL Streptomycin (PAA, P11-010). […] The compound examples were serially diluted in 100% DMSO and evaluated at 8 different concentrations within the range of 3 nM and 10 μM and a final DMSO concentration of 0.4%. […] The amount of IL-6 and IL-8 in the supernatant was determined using the Human ProInflammatory Panel II (4-Plex) (MSD, K15025B) according to manufacturer's instruction. […] The cell viability was measured using the CellTiter-Glo Luminescent Assay (Promega, G7571) following the manufacturers protocol. […]

IC50: 322 nM
Structure (SMILES): O=C(O)c1cc(NC(=O)C2CC2c2ccc(Cl)cc2)cc(F)c1-c1cnn(C2CCC2)c1 (racemic) [Example 2, 5-({[2-(4-chlorophenyl)cyclopropyl]carbonyl}amino)-2-(1-cyclobutyl-1H-pyrazol-4-yl)-3-fluorobenzoic acid]
